For one series, the target named is T1, COX-2 (Homo sapiens, UniProt P35354).
T1 construct: purchased Cayman 701050
T1 sequence (P35354 18-604): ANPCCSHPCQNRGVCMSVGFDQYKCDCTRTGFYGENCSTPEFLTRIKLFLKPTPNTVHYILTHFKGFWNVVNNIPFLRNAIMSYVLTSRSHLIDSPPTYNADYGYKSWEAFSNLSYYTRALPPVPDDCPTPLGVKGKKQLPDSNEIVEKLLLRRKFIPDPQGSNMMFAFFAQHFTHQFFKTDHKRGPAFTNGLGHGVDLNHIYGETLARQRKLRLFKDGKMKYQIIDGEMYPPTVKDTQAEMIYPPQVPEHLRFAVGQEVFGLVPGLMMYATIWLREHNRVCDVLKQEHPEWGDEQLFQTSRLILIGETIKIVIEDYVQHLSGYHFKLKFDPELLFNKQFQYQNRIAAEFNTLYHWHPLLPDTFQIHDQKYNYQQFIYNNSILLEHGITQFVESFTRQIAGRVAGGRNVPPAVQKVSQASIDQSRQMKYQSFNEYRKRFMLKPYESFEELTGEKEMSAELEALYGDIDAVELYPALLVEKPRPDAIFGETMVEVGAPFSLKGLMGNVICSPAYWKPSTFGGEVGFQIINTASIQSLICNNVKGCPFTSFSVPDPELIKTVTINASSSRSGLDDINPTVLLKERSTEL
Put plainly: Cyclooxygenase inhibition assay (Cayman kit No. 701050, COX peroxidase activity), COX-2. The class given is biochemical. Conditions: for IC50: incubation for 2 min, mean (SD), n = 3; for Ratio: COX-2/COX-1: ratio of IC50 values (COX-2/COX-1). As for the experimental part: Absorbance was measured with a microplate reader at 590 nm. […] Ratios of IC50 values (COX-2/COX-1) were also calculated

Series [1] relates to NHDF cells. Put plainly: DNA damage (chromatin relaxation, nucleus/halo diameter) after LPS preincubation. The class given is cell-based. To be noted: ratio of cell nucleus diameter to halo diameter; 1 h with compound after 24 h with 50 µM LPS; (SD) n = 6. As for the experimental part:
However, the cells were detached at the surface after 1h of incubation with the tested compound for evaluating DNA damage. The cells were then subjected to an analogous procedure as described in Grajzer et al..
(§1) The NO level was presented as concentration calculated using a standard curve (prepared in parallel with the conducted research). The ROS level was shown as ratio E/E0, where E0 is fluorescence with the positive control (cells incubated with 50 µM LPS) and E is a fluorescence with tested compound at 100 µM. Finally, the DNA damage was calculated as the ratio of cell nucleus diameter to halo diameter (a measure of DNA damage).
(§2) All statistical analysis performed were compared to the control—healthy cells (MTT assay), and positive control (incubated with 50 µM LPS) for DCF–DA, Griess, and DNA damaged. The data have a normal distribution and equality of variance, so ANOVA and post-hoc Scheffe methods were performed. The significance level was set at p < 0.05.

The target in a further series is T2, COX-1 (Ovis aries, UniProt P05979).
T2 construct: purchased Cayman 701050
T2 sequence (P05979 25-600): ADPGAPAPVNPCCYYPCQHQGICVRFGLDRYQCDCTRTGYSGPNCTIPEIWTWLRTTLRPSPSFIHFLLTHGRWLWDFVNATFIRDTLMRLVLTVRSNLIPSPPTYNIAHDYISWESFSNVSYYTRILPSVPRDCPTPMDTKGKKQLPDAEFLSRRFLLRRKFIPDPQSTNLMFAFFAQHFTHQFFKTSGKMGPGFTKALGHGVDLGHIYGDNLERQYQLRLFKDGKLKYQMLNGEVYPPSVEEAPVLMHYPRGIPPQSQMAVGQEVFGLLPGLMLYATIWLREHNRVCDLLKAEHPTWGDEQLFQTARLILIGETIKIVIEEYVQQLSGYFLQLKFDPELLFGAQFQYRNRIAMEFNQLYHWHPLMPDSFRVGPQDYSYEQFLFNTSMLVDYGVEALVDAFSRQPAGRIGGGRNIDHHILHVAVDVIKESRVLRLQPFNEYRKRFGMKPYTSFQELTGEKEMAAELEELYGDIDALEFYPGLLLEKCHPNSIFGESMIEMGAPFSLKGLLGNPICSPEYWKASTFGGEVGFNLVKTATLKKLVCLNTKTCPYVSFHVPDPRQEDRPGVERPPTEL
In words: Cyclooxygenase inhibition assay (Cayman kit No. 701050, COX peroxidase activity), COX-1. The class given is biochemical. To be noted: incubation for 2 min; mean (SD); n = 3. As for the experimental part:
Cayman kit No. 701050 was used to evaluate the COX peroxidase activity of all compounds at a concentration of 100 µM. Absorbance was measured with a microplate reader at 590 nm. Concentrations at which 50% inhibition of enzyme activity occurred were calculated separately for COX-1 and COX-2 (IC50). Ratios of IC50 values (COX-2/COX-1) were also calculated

In series [2] the test system is NHDF cells. In words: RNS (NO) level, Griess reagents after LPS preincubation. The format is cell-based. Conditions: 100 µM compound for 1 h after 24 h with 50 µM LPS; (SD) n = 6. As for the experimental part: (§3) The ROS and RNS were evaluated using DCF–DA assay and Griess reagents, respectively. First, the cells were incubated with 50 µM LPS for 24 h to induce cell stress. Then, after the cells were washed, the 100 µM tested compounds were added for 1 h. Finally, the 50 µL supernatant was transferred to a new plate and added 50 µL of mixture A (1% sulfanilamide in 5% phosphoric acid) and B (0.1% N-(1-Naphthyl)ethylenediamine dihydrochloride) Griess reagents in a volume ratio 1:1 for 20 min in the dark. After that time, the absorbance was measured at 540 nm using a microplate reader. Simultaneously, the rest of the supernatant was removed from the above cell cultures, and 25 µM DCF–DA solution in MEM (without serum and phenol red) was added and left at 37 °C for 1 h and finally, determined fluorometrically with excitation at 485 nm and emission at 535 nm using a microplate reader.
as §1, §2
On the technique in general: Nitrite, measured by Griess reagent, commonly stands in for NO production.

For series [3], the system named is NHDF cells. Put plainly: ROS level, DCF-DA assay after LPS preincubation. The format is cell-based. Conditions: 100 µM compound after LPS preincubation. As for the experimental part: as §3, §1, §2
In series [4] the test system is NHDF cells. Put plainly: Cell viability, MTT assay. The class given is cell-based. Conditions: Homo sapiens, NHDF cell cultures, 24 h incubation, read-out: Cell Viability IC50 (µM) (SD). As for the experimental part: The NHDF cells obtained from ATCC (Manasas, VA, USA) were incubated with DMEM without phenol red supplemented with 10% fetal bovine serum (FBS), 2 mM L-glutamine, 1.25 µg/mL amphotericin B and 100 µg/mL gentamicin at 37 °C in a humidified 5% CO2/95% air atmosphere incubator. The cell culture was examined under the microscope twice a week, and cells were passaged if confluence was greater than 70% or the medium was replaced with fresh medium.
The […] were prepared by dissolving compounds in DMSO and then stored at −20 °C for up to 6 months. Before the biological experimental, the working solution was dissolved in the medium in the concentration range of 10, 50, and 100 µM.
To evaluated cell viability, an MTT assay was performed. After incubation of cells with the tested compounds for 24 h, the supernatant was removed, and 1 mg/mL MTT solution was applied for 2 h. Next, the formazan was dissolved with propanol for 30 min, and absorbance was measured at 570 nm using a microplate reader. The results are presented as IC50.
(Tetrazolium dyes change colour on reduction, which living cells bring about.)

Structures are written as SMILES. Values joined by “and” are separate entries in the source; they are usually repeats but may differ in a detail not shown here. Equal values may be shown once. Marks after values point to notes of the source that are not given here.

Consider `O=C1c2ccccc2C(=O)N1CN1CCN(c2cccc(C(F)(F)F)c2)CC1` [Compound C], for which the melting point is 147 to 148 °C. Also, on COX-2, it took 70.3 µM to reach half-maximal inhibition (IC50) and the “Ratio: COX-2/COX-1” value is reported as 0.67. Further, the “DNA Damage” value with NHDF cells [1] is 23.2 (0.07) *. On COX-1, this compound came in with an IC50 of 104 µM. In addition, the “NO Level (pg/mL)” value in the series on NHDF cells [2] is reported as 8.2 (0.03) * pg/mL.

In turn, `COc1ccccc1N1CCN(C(=O)CN2C(=O)c3ccccc3C2=O)CC1` [G, 2-{2-oxo-2-[4-(2-methoxy)-phenyl-1-piperazinyl]ethyl}-1H-isoindole-1,3(2H)-dione] registered a melting point of 152 to 154 °C. Further, in the series with NHDF cells [3], the “scavenging of ROS compared to control” value is on record as “approximately 29.0%”. Further, the IC50 in the series with NHDF cells [4] worked out at 96.8 µM. The IC50 on COX-2 came to 65.8 µM. In addition, the “DNA Damage” value in the series on NHDF cells [1] was 18.7 (0.07) *. The compound further displayed an IC50 at COX-1 of 101 µM.

`O=C(CN1C(=O)c2ccccc2C1=O)N1CCN(c2ccccc2)CC1` [E, 2-[2-oxo-2-(4-phenyl-1-piperazinyl)ethyl]-1H-isoindole-1,3(2H)-dione] displayed a melting point of 180 °C. Also, at COX-2, inhibition was half-maximal at 53.4 µM (IC50) and the “Ratio: COX-2/COX-1” value stood at 0.70. Further, the “DNA Damage” value with NHDF cells [1] was 18.4 (0.07) *. Moreover, the IC50 at COX-1 stood at 76.7 µM. Moreover, in the series on NHDF cells [2], the “NO Level (pg/mL)” value was 5.3 (0.07) * pg/mL.

Compound `O=C(CN1C(=O)c2ccccc2C1=O)N1CCN(c2cccc(C(F)(F)F)c2)CC1` [F, 2-{2-oxo-2-[4-(3-trifluoromethyl)-phenyl-1-piperazinyl]ethyl}-1H-isoindole-1,3(2H)-dione] displayed a melting point of 206 to 208 °C. Besides, at COX-2, the IC50 was 47.6 µM and the “Ratio: COX-2/COX-1” value is on record as 0.28. Moreover, the “DNA Damage” value in the series with NHDF cells [1] is recorded as 20.1 (0.03) *. The same compound returned an IC50 on COX-1 of 171 µM. Besides, the “NO Level (pg/mL)” value in the series on NHDF cells [2] is 9.1 (0.07) pg/mL.

On to `COc1cccc(N2CCN(C(=O)CN3C(=O)c4ccccc4C3=O)CC2)c1` [Compound H, 2-{2-oxo-2-[4-(3-methoxy)-phenyl-1-piperazinyl]ethyl}-1H-isoindole-1,3(2H)-dione], for which the melting point lay within 155 to 156 °C. Also, the “scavenging of ROS compared to control” value in the series on NHDF cells [3] is “approximately 29.0%”. Further, the IC50 in the series with NHDF cells [4] was 94.1 µM. Also, at COX-2, the midpoint of inhibition, the IC50, lay at 43.8 µM and the “Ratio: COX-2/COX-1” value worked out at 0.25. Also, in the series on NHDF cells [1], the “DNA Damage” value is 17.1 (0.04) *. At COX-1, this compound had an IC50 of 176 µM.

Consider `COc1ccccc1N1CCN(CN2C(=O)c3ccccc3C2=O)CC1` [B, N-[(4-(2-methoxyphenyl)-1-piperazinyl)methyl]-1H-isoindole-1,3(2H)-dione], for which the melting point lay in the range of 134 to 135 °C. Moreover, on COX-2, the IC50 came out at 68.5 µM; the “Ratio: COX-2/COX-1” value was 1.10 and 0.96. The “DNA Damage” value in the series on NHDF cells [1] is given as 19.6 (0.09) *. Also, at COX-1, the IC50 came out at 71 µM.

`O=C1c2ccccc2C(=O)N1CN1CCN(C(c2ccccc2)c2ccccc2)CC1` [Compound D, N-[(4-(diphenyl-methyl)-1-piperazinyl)methyl]-1H-isoindole-1,3(2H)-dione] displayed a melting point of 206 to 207 °C. Also, in the series with NHDF cells [4], the half-maximal inhibitory concentration (IC50) is 90.3 µM. In addition, at COX-2, the IC50 stood at 72.8 µM and the “Ratio: COX-2/COX-1” value is 1.10. In addition, in the series on NHDF cells [1], the “DNA Damage” value is listed as 17.3 (0.04) *. The compound also returned an IC50 against COX-1 of 66.2 µM. Moreover, the “NO Level (pg/mL)” value in the series with NHDF cells [2] is reported as 7.4 (0.12) pg/mL.

As to `COc1ccc(N2CCN(C(=O)CN3C(=O)c4ccccc4C3=O)CC2)cc1` [Compound I, 2-{2-oxo-2-[4-(4-methoxy)-phenyl-1-piperazinyl]ethyl}-1H-isoindole-1,3(2H)-dione], the melting point fell in the range of 204 to 207 °C. Moreover, the “scavenging of ROS compared to control” value in the series on NHDF cells [3] was “approximately 29.0%”. Besides, in the series on NHDF cells [4], the IC50 stood at 93.3 µM. Further, at COX-2, the half-maximal inhibitory concentration (IC50) was found to be 46.2 µM and the “Ratio: COX-2/COX-1” value came out at 0.49. Moreover, the “DNA Damage” value in the series on NHDF cells [1] is 19.2 (0.08) *. Moreover, at COX-1, 94.4 µM corresponded to half-maximal inhibition (IC50).

On to `O=C1c2ccccc2C(=O)N1CN1CCN(c2ccccc2)CC1` [A, N-[(4-phenyl-1-piperazinyl)methyl]-1H-isoindole-1,3(2H)-dione], for which the melting point lay within 160 to 161 °C. For the same compound, on COX-2, the IC50 is 107 µM and the “Ratio: COX-2/COX-1” value is 0.45. In the series on NHDF cells [1], the “DNA Damage” value is 15.2 (0.04) *. Half-maximal inhibition against COX-1 (IC50) required 238 µM. Further, in the series with NHDF cells [2], the “NO Level (pg/mL)” value is recorded as 6.4 (0.14) pg/mL.

As usually defined, the melting point is the temperature, or range, at which the solid turns liquid. Usually IC50 stands for the concentration at which inhibition is half-maximal.

The values above are taken from article PMC8306876, “A New N-Substituted 1H-Isoindole-1,3(2H)-Dione Derivative—Synthesis, Structure and Affinity for Cyclooxygenase Based on In Vitro Studies and Molecular Docking” (International Journal of Molecular Sciences, 2021).
